Data: ChEMBL document CHEMBL1201862, “PubChem BioAssay data set” (2004)
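Tested at 5 concentrations; 48 h exposure; 96-well plates; endpoints linearly interpolated, else capped at highest concentration. Abbreviation: GI50, concentration required for 50% inhibition of growth.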 Active and inactive are the calls of the source. Cut-off read from the data, not from the text of the source: active = GI50 up to about 1.1 µM and inactive = higher.

What was measured:
Assay in all cases: inhibition of tumour cell growth, NCI panel, 48 h
SF-295 = system: SF-295
SR = system: SR
HCC 2998 = system: HCC 2998
NCI-H226 = system: NCI-H226
BT-549 = system: BT-549
PC-3 = system: PC-3
HL-60 = system: HL-60
UO-31 = system: UO-31
MDA-N = system: MDA-N
ACHN = system: ACHN
K562 = system: K562
DU-145 = system: DU-145
A498 = system: A498
OVCAR-5 = system: OVCAR-5
EKVX = system: EKVX
MDA-MB-435 = system: MDA-MB-435
SNB-19 = system: SNB-19
TK-10 = system: TK-10
CAKI-1 = system: CAKI-1
COLO 205 = system: COLO 205
NCI-H522 = system: NCI-H522
MDA-MB-231 = system: MDA-MB-231
HOP-62 = system: HOP-62
CCRF-CEM = system: CCRF-CEM
OVCAR-4 = system: OVCAR-4
NCI-H460 = system: NCI-H460
Hs-578T = system: Hs-578T
HT-29 = system: HT-29
UACC-62 = system: UACC-62
RXF 393 = system: RXF 393
SK-MEL-5 = system: SK-MEL-5
SK-MEL-2 = system: SK-MEL-2
OVCAR-3 = system: OVCAR-3
MOLT-4 = system: MOLT-4
OVCAR-8 = system: OVCAR-8
U-251 = system: U-251
UACC-257 = system: UACC-257
NCI/ADR-RES = system: NCI/ADR-RES
NCI-H23 = system: NCI-H23
LOX IMVI = system: LOX IMVI
HCT-116 = system: HCT-116
Malme-3M = system: Malme-3M
HOP-92 = system: HOP-92
SF-539 = system: SF-539
MCF7 = system: MCF7
M14 = system: M14
KM12 = system: KM12
SF-268 = system: SF-268
IGROV-1 = system: IGROV-1
SN12C = system: SN12C
RPMI-8226 = system: RPMI-8226
HCT-15 = system: HCT-15
786-0 = system: 786-0
SK-MEL-28 = system: SK-MEL-28
A549 = system: A549
T47D = system: T47D
SK-OV-3 = system: SK-OV-3
SW-620 = system: SW-620
SNB-75 = system: SNB-75

Structure (SMILES): Cc1ccc(C(=O)/C=C2\Nc3ccccc3NC2=O)cc1
- GI50 (SF-295): 4.17 µM (inactive)
- GI50 (SR): 15.5 µM (inactive)
- GI50 (HCC 2998): 11.5 µM (inactive)
- GI50 (NCI-H226): 1.65 µM (inactive)
- GI50 (BT-549): 22.2 µM (inactive)
- GI50 (PC-3): 4.84 µM (inactive)
- GI50 (HL-60): > 100 µM (inactive)
- GI50 (UO-31): 4.38 µM (inactive)
- GI50 (MDA-N): 32.6 µM (inactive)
- GI50 (ACHN): 3.4 µM (inactive)
- GI50 (K562): > 100 µM (inactive)
- GI50 (DU-145): 4.69 µM (inactive)
- GI50 (A498): 20.5 µM (inactive)
- GI50 (OVCAR-5): 29.4 µM (inactive)
- GI50 (EKVX): 2.96 µM (inactive)
- GI50 (MDA-MB-435): 10.9 µM (inactive)
- GI50 (SNB-19): 10.6 µM (inactive)
- GI50 (TK-10): 2.1 µM (inactive)
- GI50 (CAKI-1): 2.44 µM (inactive)
- GI50 (COLO 205): > 100 µM (inactive)
- GI50 (NCI-H522): 2.49 µM (inactive)
- GI50 (MDA-MB-231): 2.78 µM (inactive)
- GI50 (HOP-62): 2.04 µM (inactive)
- GI50 (CCRF-CEM): 99.1 µM (inactive)
- GI50 (OVCAR-4): 1.79 µM (inactive)
- GI50 (NCI-H460): 6.43 µM (inactive)
- GI50 (Hs-578T): 2.21 µM (inactive)
- GI50 (HT-29): 20 µM (inactive)
- GI50 (UACC-62): 2.26 µM (inactive)
- GI50 (RXF 393): 2.42 µM (inactive)
- GI50 (SK-MEL-5): 10.4 µM (inactive)
- GI50 (SK-MEL-2): 4.11 µM (inactive)
- GI50 (OVCAR-3): 2.99 µM (inactive)
- GI50 (MOLT-4): > 100 µM (inactive)
- GI50 (OVCAR-8): 3.08 µM (inactive)
- GI50 (U-251): 8.13 µM (inactive)
- GI50 (UACC-257): 12.4 µM (inactive)
- GI50 (NCI/ADR-RES): 5.13 µM (inactive)
- GI50 (NCI-H23): 8.05 µM (inactive)
- GI50 (LOX IMVI): 7.94 µM (inactive)
- GI50 (HCT-116): 2.17 µM (inactive)
- GI50 (Malme-3M): 2.48 µM (inactive)
- GI50 (HOP-92): 3.28 µM (inactive)
- GI50 (SF-539): 4.78 µM (inactive)
- GI50 (MCF7): 9.98 µM (inactive)
- GI50 (M14): 9.27 µM (inactive)
- GI50 (KM12): 17.1 µM (inactive)
- GI50 (SF-268): 5.96 µM (inactive)
- GI50 (IGROV-1): 1.07 µM (active)
- GI50 (SN12C): 5.58 µM (inactive)
- GI50 (RPMI-8226): 11.1 µM (inactive)
- GI50 (HCT-15): 56.6 µM
- GI50 (786-0): 2.49 µM (inactive)
- GI50 (SK-MEL-28): 5.3 µM (inactive)
- GI50 (A549): 4.94 µM (inactive)
- GI50 (T47D): 2.65 µM (inactive)
- GI50 (SK-OV-3): 2.19 µM (inactive)

Structure (SMILES): CCc1n[nH]c(=O)n1-c1ccncc1
- GI50 (SF-295): > 100 µM (inactive)
- GI50 (SR): > 100 µM (inactive)
- GI50 (HCC 2998): > 100 µM (inactive)
- GI50 (NCI-H226): > 100 µM (inactive)
- GI50 (BT-549): > 100 µM (inactive)
- GI50 (PC-3): > 100 µM (inactive)
- GI50 (HL-60): > 100 µM (inactive)
- GI50 (UO-31): > 100 µM (inactive)
- GI50 (MDA-N): > 100 µM (inactive)
- GI50 (ACHN): > 100 µM (inactive)
- GI50 (K562): > 100 µM (inactive)
- GI50 (DU-145): > 100 µM (inactive)
- GI50 (A498): > 100 µM (inactive)
- GI50 (OVCAR-5): > 100 µM (inactive)
- GI50 (EKVX): > 100 µM (inactive)
- GI50 (MDA-MB-435): > 100 µM (inactive)
- GI50 (SNB-19): > 100 µM (inactive)
- GI50 (TK-10): > 100 µM (inactive)
- GI50 (CAKI-1): > 100 µM (inactive)
- GI50 (COLO 205): > 100 µM (inactive)
- GI50 (NCI-H522): > 100 µM (inactive)
- GI50 (MDA-MB-231): > 100 µM (inactive)
- GI50 (HOP-62): > 100 µM (inactive)
- GI50 (CCRF-CEM): > 100 µM (inactive)
- GI50 (OVCAR-4): > 100 µM (inactive)
- GI50 (NCI-H460): > 100 µM (inactive)
- GI50 (Hs-578T): > 100 µM (inactive)
- GI50 (HT-29): > 100 µM (inactive)
- GI50 (RXF 393): > 100 µM (inactive)
- GI50 (SK-MEL-5): > 100 µM (inactive)
- GI50 (OVCAR-3): > 100 µM (inactive)
- GI50 (SW-620): > 100 µM (inactive)
- GI50 (MOLT-4): > 100 µM (inactive)
- GI50 (OVCAR-8): > 100 µM (inactive)
- GI50 (SNB-75): > 100 µM (inactive)
- GI50 (U-251): > 100 µM (inactive)
- GI50 (UACC-257): > 100 µM (inactive)
- GI50 (NCI/ADR-RES): > 100 µM (inactive)
- GI50 (NCI-H23): > 100 µM (inactive)
- GI50 (LOX IMVI): > 100 µM (inactive)
- GI50 (HCT-116): > 100 µM (inactive)
- GI50 (Malme-3M): > 100 µM (inactive)
- GI50 (HOP-92): > 100 µM (inactive)
- GI50 (SF-539): > 100 µM (inactive)
- GI50 (MCF7): > 100 µM (inactive)
- GI50 (M14): > 100 µM (inactive)
- GI50 (KM12): > 100 µM (inactive)
- GI50 (SF-268): > 100 µM (inactive)
- GI50 (IGROV-1): > 100 µM (inactive)
- GI50 (SN12C): > 100 µM (inactive)
- GI50 (RPMI-8226): > 100 µM (inactive)
- GI50 (HCT-15): > 100 µM
- GI50 (786-0): > 100 µM (inactive)
- GI50 (SK-MEL-28): > 100 µM (inactive)
- GI50 (A549): > 100 µM (inactive)
- GI50 (T47D): > 100 µM (inactive)
